These are literature values, as cited in patent publication US20060205810A1, “Platinum therapeutic combinations” (Schering Corporation, priority 2004, published 2006).

Molecules are shown by their SMILES.

The subject of data set [1] is human ovarian carcinoma cells.
Data set [2] relates to intrinsic and acquired resistance to cisplatin. Particulars: cell culture studies.
In data set [3] the test system is small cell lung cancer (SCLC). Particulars: small cell lung cancer patients.
The conditions of data set [4]: incubated with fresh human whole blood in vitro.

For the compound `N.NC1CCCCC1.[Cl-].[Cl-].[Pt+2]` [JM118], the “cytotoxicity compared with cisplatin” value in data set [1] is “greater cytotoxicity than cisplatin”. The “circumvention of resistance to cisplatin” value in data set [2] was “can partially circumvent intrinsic and acquired resistance to cisplatin”.

Turning to `CC(=O)[O][Pt]([NH2])([Cl])([Cl])([NH]C1CCCCC1)[O]C(C)=O` [satraplatin], in data set [3], the complete responses result is “no complete responses” and the “median overall survival time” value is reported as 210 days. Moreover, the tumor response rate in data set [3] (10 of 26) is 38%. In data set [2], the “circumvention of resistance to cisplatin” value was “can partially circumvent intrinsic and acquired resistance to cisplatin”. Moreover, in data set [4], the “added platinum associated with red blood cells” value is reported as 62% and the “half-life for the disappearance of the drug” value is given as 6.3 min.
